Measurements as given in US9540366B2, “Ring-fused heterocyclic compound” (Kyowa Hakko Kirin Co., Ltd., priority 2012, dated 2017).
Read-outs that look alike come from different tables or passages of the source.

Biological target: T1, human Cav3.2 T-type Ca2+ channel (Homo sapiens, UniProt O95180)
T1 construct: expressed in transfected cells; host or cells: KJMGER8 cells (Namalwa cell-derived cell line)
Assay: Inhibitory effect for intracellular calcium response via Cav3.2 T-type Ca2+ channels (FLIPR Calcium 3 Assay Kit)
Assay type: cell-based

[1] = human Cav3.2-expressing KJMGER8 cells (Namalwa-derived), calcium response induced by 5 mmol/L CaCl2, 3 μmol/L mibefradil as reference, read-out: IC50 for the human Cav3.2 T-type Ca2+ current

T1 sequence (O95180 whole entry): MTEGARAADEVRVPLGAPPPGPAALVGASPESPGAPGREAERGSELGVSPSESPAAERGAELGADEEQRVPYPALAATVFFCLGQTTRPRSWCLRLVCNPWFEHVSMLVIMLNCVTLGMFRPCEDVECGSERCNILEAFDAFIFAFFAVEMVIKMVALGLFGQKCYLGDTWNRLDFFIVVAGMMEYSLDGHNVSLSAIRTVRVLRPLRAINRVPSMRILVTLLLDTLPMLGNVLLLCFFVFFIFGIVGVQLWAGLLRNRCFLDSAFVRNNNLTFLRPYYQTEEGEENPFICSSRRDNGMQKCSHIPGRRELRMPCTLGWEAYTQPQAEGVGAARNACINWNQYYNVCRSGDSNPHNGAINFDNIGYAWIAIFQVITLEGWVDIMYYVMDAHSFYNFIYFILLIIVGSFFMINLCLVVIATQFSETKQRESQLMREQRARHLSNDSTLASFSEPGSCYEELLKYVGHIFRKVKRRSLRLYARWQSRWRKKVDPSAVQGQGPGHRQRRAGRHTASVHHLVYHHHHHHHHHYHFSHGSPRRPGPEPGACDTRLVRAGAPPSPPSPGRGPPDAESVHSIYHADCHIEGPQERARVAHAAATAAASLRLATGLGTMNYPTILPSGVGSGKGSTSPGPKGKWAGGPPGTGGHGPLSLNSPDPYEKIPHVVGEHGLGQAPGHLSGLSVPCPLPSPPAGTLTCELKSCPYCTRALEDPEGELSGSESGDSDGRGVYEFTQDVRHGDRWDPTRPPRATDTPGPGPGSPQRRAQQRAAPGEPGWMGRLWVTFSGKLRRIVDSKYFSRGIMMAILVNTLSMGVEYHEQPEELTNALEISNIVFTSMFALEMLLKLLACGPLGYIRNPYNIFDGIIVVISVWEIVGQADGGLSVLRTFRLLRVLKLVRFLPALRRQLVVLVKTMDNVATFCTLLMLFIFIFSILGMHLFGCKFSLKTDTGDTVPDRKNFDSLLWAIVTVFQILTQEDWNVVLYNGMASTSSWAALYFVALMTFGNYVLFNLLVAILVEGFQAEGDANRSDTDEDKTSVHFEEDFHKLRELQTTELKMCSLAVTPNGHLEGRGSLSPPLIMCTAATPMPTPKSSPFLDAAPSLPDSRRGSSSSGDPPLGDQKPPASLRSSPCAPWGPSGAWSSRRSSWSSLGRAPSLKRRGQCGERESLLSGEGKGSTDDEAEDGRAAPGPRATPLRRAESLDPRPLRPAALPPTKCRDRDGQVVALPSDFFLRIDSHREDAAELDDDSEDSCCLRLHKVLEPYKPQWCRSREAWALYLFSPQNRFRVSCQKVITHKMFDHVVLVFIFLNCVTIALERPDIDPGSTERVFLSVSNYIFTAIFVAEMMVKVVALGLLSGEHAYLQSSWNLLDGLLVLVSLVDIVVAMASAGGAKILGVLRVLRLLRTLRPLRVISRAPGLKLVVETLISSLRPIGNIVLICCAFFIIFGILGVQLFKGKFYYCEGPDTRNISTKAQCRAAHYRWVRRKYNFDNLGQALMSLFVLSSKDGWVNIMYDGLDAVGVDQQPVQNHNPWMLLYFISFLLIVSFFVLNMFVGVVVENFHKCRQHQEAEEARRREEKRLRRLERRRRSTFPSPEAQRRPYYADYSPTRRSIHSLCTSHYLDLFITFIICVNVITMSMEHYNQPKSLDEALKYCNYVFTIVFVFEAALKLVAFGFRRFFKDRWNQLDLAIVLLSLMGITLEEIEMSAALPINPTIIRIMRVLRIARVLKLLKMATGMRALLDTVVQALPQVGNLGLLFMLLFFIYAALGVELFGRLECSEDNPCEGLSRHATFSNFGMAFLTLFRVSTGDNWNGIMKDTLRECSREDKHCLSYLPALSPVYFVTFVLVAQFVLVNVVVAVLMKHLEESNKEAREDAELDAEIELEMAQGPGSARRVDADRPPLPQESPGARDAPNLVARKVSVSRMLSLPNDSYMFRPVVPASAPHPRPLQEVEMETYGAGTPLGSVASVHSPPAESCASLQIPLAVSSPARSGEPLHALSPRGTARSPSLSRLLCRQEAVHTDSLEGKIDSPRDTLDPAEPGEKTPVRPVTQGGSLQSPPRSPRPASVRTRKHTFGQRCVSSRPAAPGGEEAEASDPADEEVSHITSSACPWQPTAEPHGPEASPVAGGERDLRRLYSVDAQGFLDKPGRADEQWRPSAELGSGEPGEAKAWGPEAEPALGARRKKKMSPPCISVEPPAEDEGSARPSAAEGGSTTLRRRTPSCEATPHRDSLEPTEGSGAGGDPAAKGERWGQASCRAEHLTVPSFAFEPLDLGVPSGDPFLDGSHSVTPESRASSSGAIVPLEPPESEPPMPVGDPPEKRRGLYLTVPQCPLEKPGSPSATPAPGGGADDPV

SMILES | IC50 [nM] | IC50 [1] [nM]
Cc1cc(C(=O)NOC2CCOCC2)cc2nc(C(F)(F)F)c(CC3CCC(F)(F)CC3)n12 [Compound 72, 3-[(4,4-Difluorocyclohexyl)methyl]-5-methyl-N-(tetrahydro-2H-pyran-4-yloxy)-2-(trifluoromethyl)imidazo[1,2-a]pyridine-7-carboxamide] | ≤ 100 | –
Cc1cc(-c2nc3c([nH]2)CCCC3)cc2nc(C(F)(F)F)c(CC3CCC(F)(F)CC3)n12 [Compound 73, 2-{3-[(4,4-Difluorocyclohexyl)methyl]-5-methyl-2-(trifluoromethyl)imidazo[1,2-a]pyridin-7-yl}-4,5,6,7-tetrahydro-1H-benzo[d]imidazol] | ≤ 100 | –
Cc1cc(C(=O)NC2CCCOCC2)cc2nc(C(F)(F)F)c(CC3CCC(F)(F)CC3)n12 (centres unmarked) [Compound 74, 3-[(4,4-Difluorocyclohexyl)methyl]-5-methyl-N-(oxepan-4-yl)-2-(trifluoromethyl)imidazo[1,2-a]pyridine-7-carboxamide] | ≤ 100 | –
Cc1cc(C(=O)NC2(C3CCOCC3)CC2)cc2nc(C(F)(F)F)c(CC3CCC(F)(F)CC3)n12 [Compound 75, 3-[(4,4-Difluorocyclohexyl)methyl]-5-methyl-N-[1-(tetrahydro-2H-pyran-4-yl)cyclopropyl]-2-(trifluoromethyl)imidazo[1,2-a]pyridine-7-carboxamide] | – | ≤ 100
N#Cc1cc(C(=O)NC2CC2)cc2nc(C(F)(F)F)c(CC3CCC(F)(F)CC3)n12 [Compound 76, 5-Cyano-N-cyclopropyl-3-[(4,4-difluorocyclohexyl)methyl]-2-(trifluoromethyl)imidazo[1,2-a]pyridine-7-carboxamide] | ≤ 100 | –
O=C(NCC1CC1)c1cc(Cl)n2c(CC3CCC(F)(F)CC3)c(C(F)(F)F)nc2c1 [Compound 77, 5-Chloro-N-(cyclopropylmethyl)-3-[(4,4-difluorocyclohexyl)methyl]-2-(trifluoromethyl)imidazo[1,2-a]pyridine-7-carboxamide] | ≤ 100 | –
Cc1cc(CC(=O)NC2CCOCC2)cc2nc(C(F)(F)F)c(CC3CCC(F)(F)CC3)n12 [Compound 78, 2-{3-[(4,4-Difluorocyclohexyl)methyl]-5-methyl-2-(trifluoromethyl)imidazo[1,2-a]pyridin-7-yl}-N-(tetrahydro-2H-pyran-4-yl)acetamide] | ≤ 100 | –
Cc1cc(C(=O)NC2CC(CO)(CO)C2)cc2nc(C(F)(F)F)c(CC3CCC(F)(F)CC3)n12 [Compound 80, N-[3,3-Bis(hydroxymethyl)cyclobutyl]-3-[(4,4-difluorocyclohexyl)methyl]-5-methyl-2-(trifluoromethyl)imidazo[1,2-a]pyridine-7-carboxamide] | ≤ 100 | –
CC(C)(NC(=O)c1cc(Cl)n2c(CC3CCC(F)(F)CC3)c(C(F)(F)F)nc2c1)C1CCOCC1 [Compound 81, 5-Chloro-3-[(4,4-difluorocyclohexyl)methyl]-N-[2-(tetrahydro-2H-pyran-4-yl)propan-2-yl]-2-(trifluoromethyl)imidazo[1,2-a]pyridine-7-carboxamide] | ≤ 100 | –
Cc1cc(C(O)C(O)C2CCOCC2)cc2nc(C(F)(F)F)c(CC3CCC(F)(F)CC3)n12 (centres unmarked) [Compound 82, 1-{3-[(4,4-Difluorocyclohexyl)methyl]-5-methyl-2-(trifluoromethyl)imidazo[1,2-a]pyridin-7-yl}-2-(tetrahydro-2H-pyran-4-yl)ethane-1,2-diol] | ≤ 100 | –
Cc1cc(C(=O)C(O)C2CCOCC2)cc2nc(C(F)(F)F)c(CC3CCC(F)(F)CC3)n12 (centres unmarked) [Compound 83, 1-{3-[(4,4-Difluorocyclohexyl)methyl]-5-methyl-2-(trifluoromethyl)imidazo[1,2-a]pyridin-7-yl}-2-hydroxy-2-(tetrahydro-2H-pyran-4-yl)ethanone] | – | ≤ 100
Cc1cc(CC(=O)NOC2CCOCC2)cc2nc(C(F)(F)F)c(CC3CCC(F)(F)CC3)n12 [Compound 84, 2-{3-[(4,4-Difluorocyclohexyl)methyl]-5-methyl-2-(trifluoromethyl)imidazo[1,2-a]pyridin-7-yl}-N-(tetrahydro-2H-pyran-4-yloxy)acetamide] | ≤ 100 | –
Cc1cc(CC(=O)Nc2ccccc2N)cc2nc(C(F)(F)F)c(CC3CCC(F)(F)CC3)n12 [Compound 85, N-(2-Aminophenyl)-2-{3-[(4,4-difluorocyclohexyl)methyl]-5-methyl-2-(trifluoromethyl)imidazo[1,2-a]pyridin-7-yl}acetamide] | – | ≤ 100
O=C(NCC1(O)CCOCC1)c1cc(Cl)n2c(CC3CCC(F)(F)CC3)c(C(F)(F)F)nc2c1 [Compound 86, 5-Chloro-3-[(4,4-difluorocyclohexyl)methyl]-N-[(4-hydroxytetrahydro-2H-pyran-4-yl)methyl]-2-(trifluoromethyl)imidazo[1,2-a]pyridine-7-carboxamide] | ≤ 100 | –
Cc1cc(Cc2nc3ccccc3[nH]2)cc2nc(C(F)(F)F)c(CC3CCC(F)(F)CC3)n12 [Compound 87, 2-({3-[(4,4-Difluorocyclohexyl)methyl]-5-methyl-2-(trifluoromethyl)imidazo[1,2-a]pyridin-7-yl}methyl)-1H-benzo[d]imidazol] | – | ≤ 100
Cc1cc(C(=O)NC2CC3(COC3)C2)cc2nc(C(F)(F)F)c(CC3CCC(F)(F)CC3)n12 [Compound 88, 3-[(4,4-Difluorocyclohexyl)methyl]-5-methyl-N-(2-oxaspiro[3.3]heptan-6-yl)-2-(trifluoromethyl)imidazo[1,2-a]pyridine-7-carboxamide] | ≤ 100 | –

SMILES | IC50 [nM] | IC50 [1] [nM]
Cc1cc(C(C)C(=O)NC2CCOCC2)cc2nc(C(F)(F)F)c(CC3CCC(F)(F)CC3)n12 (centres unmarked) [Compound 89, 2-{3-[(4,4-Difluorocyclohexyl)methyl]-5-methyl-2-(trifluoromethyl)imidazo[1,2-a]pyridin-7-yl}-N-(tetrahydro-2H-pyran-4-yl)propanamide] | ≤ 100 | –
Cc1cc(C(O)C(O)c2ccccc2)cc2nc(C(F)(F)F)c(CC3CCC(F)(F)CC3)n12 (centres unmarked) [Compound 94, 1-{3-[(4,4-Difluorocyclohexyl)methyl]-5-methyl-2-(trifluoromethyl)imidazo[1,2-a]pyridin-7-yl}-2-phenylethane-1,2-diol] | ≤ 100 | –
O=C(NC1CC(CO)(CO)C1)c1cc(Cl)n2c(CC3CCC(F)(F)CC3)c(C(F)(F)F)nc2c1 [Compound 95, N-[3,3-Bis(hydroxymethyl)cyclobutyl]-5-chloro-3-[(4,4-difluorocyclohexyl)methyl]-2-(trifluoromethyl)imidazo[1,2-a]pyridine-7-carboxamide] | ≤ 100 | –
O=C(NCc1ccncc1)c1cc(Cl)n2c(CC3CCC(F)(F)CC3)c(C(F)(F)F)nc2c1 [Compound 97] | ≤ 100 | –
O=C(NCc1ccccc1)c1cc(Cl)n2c(CC3CCC(F)(F)CC3)c(C(F)(F)F)nc2c1 [Compound 98, N-Benzyl-5-chloro-3-[(4,4-difluorocyclohexyl)methyl]-2-(trifluoromethyl)imidazo[1,2-a]pyridine-7-carboxamide] | ≤ 100 | –
O=C(NCCN1CCCCC1)c1cc(Cl)n2c(CC3CCC(F)(F)CC3)c(C(F)(F)F)nc2c1 [Compound 99, 5-Chloro-3-[(4,4-difluorocyclohexyl)methyl]-N-[2-(piperidin-1-yl)ethyl]-2-(trifluoromethyl)imidazo[1,2-a]pyridine-7-carboxamide] | ≤ 100 | –
O=C(NCCCn1ccnc1)c1cc(Cl)n2c(CC3CCC(F)(F)CC3)c(C(F)(F)F)nc2c1 [Compound 100, N-[3-(1H-Imidazol-1-yl)propyl]-5-chloro-3-[(4,4-difluorocyclohexyl)methyl]-2-(trifluoromethyl)imidazo[1,2-a]pyridine-7-carboxamide] | ≤ 100 | –
O=C(NCc1cccc(O)c1)c1cc(Cl)n2c(CC3CCC(F)(F)CC3)c(C(F)(F)F)nc2c1 [Compound 103, 5-Chloro-3-[(4,4-difluorocyclohexyl)methyl]-N-(3-hydroxybenzyl)-2-(trifluoromethyl)imidazo[1,2-a]pyridine-7-carboxamide] | – | ≤ 100
O=C(NCCc1c[nH]cn1)c1cc(Cl)n2c(CC3CCC(F)(F)CC3)c(C(F)(F)F)nc2c1 [Compound 104] | ≤ 100 | –
O=C(NCc1ccccn1)c1cc(Cl)n2c(CC3CCC(F)(F)CC3)c(C(F)(F)F)nc2c1 [Compound 106] | ≤ 100 | –
O=C(NCCN(CCO)CCO)c1cc(Cl)n2c(CC3CCC(F)(F)CC3)c(C(F)(F)F)nc2c1 [Compound 109, N-{2-[Bis(2-hydroxyethyl)amino]ethyl}-5-chloro-3-[(4,4-difluorocyclohexyl)methyl]-2-(trifluoromethyl)imidazo[1,2-a]pyridine-7-carboxamide] | – | ≤ 100
CCOC(=O)CNC(=O)c1cc(Cl)n2c(CC3CCC(F)(F)CC3)c(C(F)(F)F)nc2c1 [Compound 110, Ethyl 2-{5-chloro-3-[(4,4-difluorocyclohexyl)methyl]-2-(trifluoromethyl)imidazo[1,2-a]pyridine-7-carboxamide}acetate] | ≤ 100 | –
Cc1cc(C(O)c2nc3ccccc3[nH]2)cc2nc(C(F)(F)F)c(CC3CCC(F)(F)CC3)n12 (centres unmarked) [Compound 112, (1H-Benzo[d]imidazol-2-yl){3-[(4,4-difluorocyclohexyl)methyl]-5-methyl-2-(trifluoromethyl)imidazo[1,2-a]pyridin-7-yl}methanol] | – | ≤ 100
CC(C)(C)OC(=O)NCCNC(=O)c1cc(Cl)n2c(CC3CCC(F)(F)CC3)c(C(F)(F)F)nc2c1 [Compound 115, tert-Butyl 2-{5-chloro-3-[(4,4-difluorocyclohexyl)methyl]-2-(trifluoromethyl)imidazo[1,2-a]pyridine-7-carboxamide}ethylcarbamate] | ≤ 100 | –
Cc1cc(C(O)c2nc3ccccc3n2C)cc2nc(C(F)(F)F)c(CC3CCC(F)(F)CC3)n12 (centres unmarked) [Compound 120, {3-[(4,4-Difluorocyclohexyl)methyl]-5-methyl-2-(trifluoromethyl)imidazo[1,2-a]pyridin-7-yl}(1-methyl-1H-benzo[d]imidazol-2-yl)methanol] | – | ≤ 100
CCOC(=O)C(C)NC(=O)c1cc(Cl)n2c(CC3CCC(F)(F)CC3)c(C(F)(F)F)nc2c1 (centres unmarked) [Compound 123, Ethyl 2-{5-chloro-3-[(4,4-difluorocyclohexyl)methyl]-2-(trifluoromethyl)imidazo[1,2-a]pyridine-7-carboxamide}propanoate] | ≤ 100 | –
